In PMC10606488, “Usnic Acid Derivatives Inhibit DNA Repair Enzymes Tyrosyl-DNA Phosphodiesterases 1 and 2 and Act as Potential Anticancer Agents” (Genes, 2023):
Like-named read-outs stand apart in the source and are kept apart here.

Columns and labels:
Recombinant human Tdp2 [1] = biological target: T1, Recombinant human Tdp2 (Homo sapiens, UniProt O95551); test: Gel-based Tdp2 activity assay; type: biochemical
T1 construct: made in house
T1 sequence (O95551 1-362): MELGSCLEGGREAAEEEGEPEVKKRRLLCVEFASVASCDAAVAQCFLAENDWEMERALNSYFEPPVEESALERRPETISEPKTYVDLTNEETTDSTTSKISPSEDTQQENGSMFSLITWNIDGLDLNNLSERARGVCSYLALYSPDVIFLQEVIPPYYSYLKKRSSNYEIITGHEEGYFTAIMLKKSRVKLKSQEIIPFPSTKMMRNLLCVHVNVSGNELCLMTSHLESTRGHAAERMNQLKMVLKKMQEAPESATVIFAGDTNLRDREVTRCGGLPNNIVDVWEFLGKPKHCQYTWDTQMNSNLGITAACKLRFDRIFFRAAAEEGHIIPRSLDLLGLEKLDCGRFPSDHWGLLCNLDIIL

[2] = test system: purified recombinant human Tdp1; details: cited from earlier work
HEK293FT Tdp2−/− cells = test: Intrinsic cytotoxicity, MTT test, Tdp2 knockout cells; type: cell-based, human; details: 10 μM compound, 3 days
Experimental: (§1) The intrinsic cytotoxicity of the compounds was examined against cell line HEK293FT (human embryonic kidney) with a standard MTT test. The cells were grown in DMEM-F12 medium, with 50 IU/mL penicillin and 50 µg/mL streptomycin (Thermo Fisher Scientific, Waltham, MA, USA) in the presence of 10% fetal bovine serum (Biolot, Saint-Petersburg, Russia) in 5% CO2 atmosphere. Tested compounds were added after formation of a 30–50% monolayer to the medium (1:100 added reagents to the total volume of the culture medium, thus the final concentration of DMSO was 1%) and the cell culture was monitored for 3 days. Control cells were grown in the presence of 1% DMSO. The measurements of cytotoxicity were carried out in three repeats.
We performed a selection of protospacers for human Tdp2 gene knockout with the Benchling CRISPR tool (https://www.benchling.com/) (accessed on 13 February 2020). Two 20-nt protospacer sequences were selected for deletion of exon 6 (PAM sequences in brackets) of the human Tdp2 gene (NM_016614.3): Tdp2-gRNA1 […](AGG) and Tdp2-gRNA2 […](TGG). The scheme of protospacers in the Tdp2 gene is shown on Figure S9A in the Supplementary Materials. Oligonucleotides were cloned in a pSpCas9(BB)-2A-GFP (PX458) plasmid that was a kind gift from Dr. Feng Zhang (Addgene plasmid #48138; http://n2t.net/addgene:48138 (accessed on 13 February 2020), RRID:Addgene_48138) as previously described. Transfection-grade DNA plasmids were isolated with the Plasmid Plus Midi Kit (QIAGEN, Hilden, Germany).
We transfected HEK293FT cells with the constructed plasmids (0.25 µg of each) pX458-Tdp2-gRNA1 and pX458-Tdp2-gRNA2 using Lipofectamine 3000 Reagent (Thermofisher Scientific, Waltham, MA, USA). We used growth medium containing DMEM/F12 (Thermofisher Scientific, MA, USA) 1:1, 10% fetal bovine serum (Thermofisher Scientific, MA, USA), 100 U/mL penicillin–streptomycin (Thermofisher Scientific, MA, USA), and GlutaMAX (1×) (Thermofisher Scientific, Waltham, MA, USA). […]

HEK293FT wild-type cells = test: Intrinsic cytotoxicity, MTT test, wild-type cells; type: cell-based, human; details: 10 μM compound, 3 days
Experimental: as §1
Since Tdp inhibitors are intended to be used in therapeutic cocktails, non-toxic concentrations of the compounds are required so as not to exacerbate the already serious side effects of therapy. We studied the intrinsic cytotoxicity of the compounds, (−)-11a,d,h, that inhibited Tdp2 on HEK293FT wild-type cells and Tdp2 knockout (Tdp2^−/−) cells (Figure 3). Tdp2 knockout HEK293FT cells were obtained using the CRISPR/Cas9 method. At 10 μM concentration, the cell survival was not less than 80% for both types of cells. This concentration was chosen for further studies of the ability of the compounds to sensitize the effect of the Top2 inhibitor etoposide.

[3] = biological target: tyrosyl-DNA phosphodiesterase 2; details: Figure 2; read-out: IC50 (Tdp2); cited from earlier work
Recombinant human Tdp2 [4] = biological target: T1, Recombinant human Tdp2; parameters: method as in PMID 34768766, PMID 35011303; details: Figure 2; cited from earlier work
[5] = Effect of compounds on the cytotoxicity of etoposide, Tdp2 knockout cells; type: cell-based; details: human, HEK293FT Tdp2 knockout (Tdp2−/−) cells, with vehicle (DMSO 1%)
Experimental: as §1
(§2) Different concentrations of etoposide and fixed concentrations of usnic acid derivatives 10 μM were used to evaluate the effect of the tested compounds on the cytotoxicity of etoposide.
We performed a selection of protospacers for human Tdp2 gene knockout with the Benchling CRISPR tool (https://www.benchling.com/) (accessed on 13 February 2020). […]
(§3) We studied the effect of Tdp2 inhibitors on the cytotoxic effect of etoposide. The CC50 for etoposide was measured in the presence and absence of compounds. […] The significance of the differences between the metabolic activity of WT and Tdp2^−/− cells was assessed using the Mann–Whitney test. […]

[6] = Effect of compounds on the cytotoxicity of etoposide, wild-type cells; type: cell-based; details: human, HEK293FT wild-type cells; with vehicle (DMSO 1%), HEK293FT WT
Experimental: as §1, §2
as §3, with “compounds. The sensitivity to etoposide in Tdp2 knockout cells was close to wild-type cells (Figure 4a).” for “compounds.”

[7] = (+)-usnic acid derivatives, read-out: Tdp1 IC50
[8] = (−)-usnic acid derivatives, read-out: Tdp1 IC50
[9] = Figure 1, read-out: IC50 (Tdp1)
[10] = Figure 2, read-out: IC50 (Tdp1)

Question: With `CC(=O)C1=C(O)C=C2Oc3c(-c4csc(NN=Cc5ccc[nH]5)n4)c(O)c(C)c(O)c3C2(C)C1=O` (single isomer, unassigned; (+)) [(+)-11a] as the compound, how does the IC50 (Recombinant human Tdp2 [1]; (+)-usnic acid derivatives) read?
Answer: Its IC50 is over 50 µM.

Question: What about the IC50 [2, 7] of the same compound?
Answer: Its IC50 is 0.188 ± 0.003 µM.

Question: Which IC50 (Recombinant human Tdp2 [1]; (+)-usnic acid derivatives) does the source give for `CC(=O)C1=C(O)C=C2Oc3c(-c4csc(NN=Cc5c[nH]c6ccccc56)n4)c(O)c(C)c(O)c3C2(C)C1=O` (single isomer, unassigned; (+)) [(+)-11d] here?
Answer: Its IC50 is over 50 µM.

Question: What about the IC50 [2, 7] of the same compound?
Answer: The IC50 was 0.026 ± 0.006 µM.

Question: With `COc1ccc(C=NNc2nc(-c3c(O)c(C)c(O)c4c3OC3=CC(O)=C(C(C)=O)C(=O)C34C)cs2)cc1CN1CCN(c2ccc(F)cc2)CC1` (single isomer, unassigned; (+)) [(+)-11h] as the compound, how does the IC50 (Recombinant human Tdp2 [1]; (+)-usnic acid derivatives) read?
Answer: The IC50 was over 50 µM.

Question: And the IC50 [2, 7]?
Answer: Its IC50 is 0.08 ± 0.007 µM.

Question: Which IC50 (Recombinant human Tdp2 [1]; (−)-usnic acid derivatives) does the source give for `CC(=O)C1=C(O)C=C2Oc3c(-c4csc(NN=Cc5ccc[nH]5)n4)c(O)c(C)c(O)c3C2(C)C1=O` (single isomer, unassigned; (-)) [(−)-11a] here?
Answer: Its IC50 is 8 ± 4 µM.

Question: What about the IC50 [2, 8] of the same compound?
Answer: The IC50 was 0.018 ± 0.001 µM.

Question: And the cell survival (HEK293FT Tdp2−/− cells)?
Answer: Its cell survival is “not less than 80%”.

Question: And the cell survival (HEK293FT wild-type cells)?
Answer: The cell survival was “not less than 80%”.

Question: What does the source list for `CC(=O)C1=C(O)C=C2Oc3c(-c4csc(NN=Cc5c[nH]c6ccccc56)n4)c(O)c(C)c(O)c3C2(C)C1=O` (single isomer, unassigned; (-)) [(−)-11d]?
Answer: IC50 (Recombinant human Tdp2 [1]; (−)-usnic acid derivatives): 6 ± 3 µM; IC50 [2, 8]: 0.057 ± 0.001 µM; cell survival (HEK293FT Tdp2−/− cells): not less than 80%; cell survival (HEK293FT wild-type cells): not less than 80%

Question: Which IC50 (Recombinant human Tdp2 [1]; (−)-usnic acid derivatives) does the source give for `COc1ccc(C=NNc2nc(-c3c(O)c(C)c(O)c4c3OC3=CC(O)=C(C(C)=O)C(=O)C34C)cs2)cc1CN1CCN(c2ccc(F)cc2)CC1` (single isomer, unassigned; (-)) [(−)-11h] here?
Answer: Its IC50 is 9 ± 1 µM.

Question: And the IC50 [2, 8]?
Answer: The IC50 was 0.059 ± 0.005 µM.

Question: What about the cell survival (HEK293FT Tdp2−/− cells) of the same compound?
Answer: The cell survival was “not less than 80%”.

Question: What about the cell survival (HEK293FT wild-type cells) of the same compound?
Answer: The cell survival was “not less than 80%”.

Question: For `CC(C)=CCC/C(C)=C/COc1ccc2c(-c3ccc(I)cc3)cc(=O)oc2c1` [compound 2, reference compound], which IC50 [2, 9] is on record?
Answer: The IC50 was 0.62 µM.

Question: Which IC50 [2, 9] does the source give for `CC(=O)c1c(O)c(C)c(O)c2c1OC1=CC(=O)/C(=C(/C)NCCCc3cc(C(C)(C)C)c(O)c(C(C)(C)C)c3)C(=O)[C@@]12C` [compound 3, reference compound] here?
Answer: The IC50 was 0.16 µM.

Question: Which IC50 [2, 9] does the source give for `CC(=O)C1=C(O)C=C2Oc3c(-c4csc(N/N=C/c5ccc(Br)cc5)n4)c(O)c(C)c(O)c3[C@@]2(C)C1=O` [compound 4, reference compound] here?
Answer: The IC50 was 0.026 µM.

Question: With `NC1=CC(N)=C2C=CC(=O)N=C2C1=O` [compound 6] as the compound, how does the IC50 [3] read?
Answer: Its IC50 is 1.7 µM.

Question: For `CC(=O)C1=C(O)C=C2Oc3c(C(=O)CSC4=NCCS4)c(O)c(C)c(O)c3[C@@]2(C)C1=O` [compound 7, reference compound], which IC50 [2, 10] is on record?
Answer: The IC50 was 4.4 µM.

Question: And the IC50 (Recombinant human Tdp2 [4])?
Answer: Its IC50 is about 1000 µM.

Question: Which results are given for `C[C@H](CCC(=O)NCCc1c[nH]c2ccccc12)[C@H]1CCC2C3CCC4C[C@H](OCc5ccccc5)CC[C@]4(C)C3C[C@H](O)[C@@]21C` (stereo partly shown) [compound 8, reference compound]?
Answer: IC50 [2, 10]: 0.24 µM; IC50 (Recombinant human Tdp2 [4]): ~1000 µM

Question: What does the source list for `COc1cc([C@@H]2c3cc4c(cc3[C@@H](O[C@@H]3O[C@@H]5CO[C@@H](C)O[C@H]5[C@H](O)[C@H]3O)[C@H]3COC(=O)[C@H]23)OCO4)cc(OC)c1O` [etoposide]?
Answer: CC50 at 3 days [5]: 2.3 µM; CC50 at 3 days [6]: 2.4 µM
